From US12220404B2, “Treatment and management of augmentation in restless legs syndrome” (East Carolina University, priority 2015, dated 2025)
“Also recorded” adds a separate entry of the source.

How the values were obtained:
wild type (WT) animals = test: Thermal pain withdrawal reflex latencies (Hargreaves apparatus); assay type: in vivo, mice; conditions: for thermal withdrawal latencies: WT, pramipexole 0.5 mg/kg, SCH 39166 0.1 mg/kg
Method: Assessment of baseline pain withdrawal reflex latencies (“thermal pain”): RLS is first and foremost a sensory disorder that is accompanied by a motor component. The clinical sensations (“urge to move”) stem from deep muscle tissues and are considered “painful” by many, if not most patients, unless acted on immediately (moving of the limbs). Pain from deep muscles is carried by both unmyelinated C-fibers (both peptidergic and non-peptidergic) as well as a-∂ fiber. Pain due to thermal stimulus energy is carried specifically by subsets of these nociceptors that express the transient receptor potential-V1 protein (TRPV1). These TRPV1 expressing nociceptors also have extensive cutaneous distribution and are easily activated by a heat source applied to the surface of the skin. Thus the thermal pain stimulus tested in the Hargreaves apparatus (IITC, Inc., Life Science, Model 39D) provides an appropriate surrogate for monitoring changes in deep muscle nociceptor activity that may be present in RLS, and the latencies to withdraw the hindpaw from a noxious thermal stimulus applied to the plantar surface of the hindpaw provide a measure of pain sensitivity. Animals will be removed from their home cages and placed individually in the small Plexiglas containers of the Hargreave's system (4″ width×4″ length×5″ height). The behavior room has optional low light settings to minimize visual perturbations. Each day, animals will be acclimatized on the Hargreaves platform for 1-2 hrs. Subsequently, baseline withdrawal latencies will be determined for each animal, with five independent trials performed per hindpaw per session and a mean latency calculated for each day. The tests will be administered over 4 days.
Drug injection protocol: After establishing baseline parameters, each animal will receive in weeks 1-4 once daily a single-drug i.p. injection of the respective compound: 0.9% NaCl (sham), the D3R agonist (pramipexole) at 0.1 or 0.5 mg/kg, or the D1R antagonist ecopipam ([…]) at 0.1 mg/kg, and tested for thermal pain withdrawal tolerance (details in flow chart, FIG. 5). […] Each cohort will be treated independently of each other, but all animals will receive their respective i.p. injections daily (7 days/week) between 9-11 am in the morning, to avoid possible conflicts with the circadian cycle. Thermal pain withdrawal reflexes will be tested as above on 4 subsequent days per week in the afternoon, starting on the second day of the drug injections. Subgroups a) of each cohort will be euthanized after 1 week, with subgroups b)-d) following suite in 1-week intervals (FIG. 5).
Statistical Analysis: For the behavioral experiments, withdrawal latencies under drug conditions will be averaged and normalized to the mean of the pre-drug values, and statistical significance will be determined with RM ANOVA and subsequent post-hoc comparisons, as appropriate, and with a set <0.05 (SigmaPlot, Systat, San Jose, CA). For the data analysis of the Western blots, we will use One-way ANOVA testing to assess significance, and identify group differences with appropriate post-hoc comparisons (e.g. Holm-Sidak).

[1] = test system: isolated spinal cord (monosynaptic stretch reflex); test: Spinal reflex amplitudes (SRAs) in the isolated spinal cord; design: species or system mice
Method: Animals will be anesthetized with ketamine/xylazine and decapitated, and the spinal cord carefully dissected out of the body cavity and placed in a Sylgard-lined (Dow Corning, Midland MI) Petri dish in cooled (<4° C.) artificial cerebrospinal fluid (ACSF) containing (in mM); 125 NaCl, 2.5 KCl, 2 CaCl2, 1 MgCl2, 25 glucose, 1.25 NaH2PO4, and 26 NaHCO3 at a pH of 7.4, oxygenated with 95% O2-5% CO2. After opening and removing the dura mater, to facilitate the access of ACSF to the cord, dorsal and ventral roots will be identified and pinned out with small insect pins. Preparations will either be left intact (in animals less than 7 days old) or hemisected mid-sagittally (>1 week old animals). The hemisection in the older animals helps better oxygenate the tissue and extends the life expectancy of the isolated preparation. Under these conditions, we can hold the spinal cord functionally alive for more than 24 hours, and we have been able test SRAs in individual preparations for up to 48 hours. After a 30-60 min recovery at room temperature, glass suction electrodes will be placed on the distal parts of dorsal and ventral roots of lumbar segments L2-L5. […] For the analyses, reflex responses will be rectified and the calculated integrals of these responses measured and compared between epochs of identical duration before and after drug application. For short-term assessments of drug effects, we will average the last ten consecutive SRAs measured before drug application with the last ten consecutive SRAs after 30 min of application of the drugs per epoch. […]
Statistical Analysis: For the experiments on the isolated spinal cords, we will measure SRAs under control and drug conditions, and data will be averaged and normalized to the mean of the pre-drug values. Statistical significance will be determined with One-Way ANOVA and subsequent post-hoc comparisons or t-tests, as appropriate, and with a set <0.05 (SigmaPlot, Systat, San Jose, CA).

[2] = short-term bath application (less than 30 min)

CCCN[C@H]1CCc2nc(N)sc2C1 [pramipexole]
thermal withdrawal latencies (wild type (WT) animals; acute treatment): 152.9+/−2.8 % of control
post-injection withdrawal latencies (wild type (WT) animals; after 4 weeks of daily injections with pramipexole, 1 hr post-injection): 75.2+/−32%
post injection withdrawal latencies (wild type (WT) animals; week 1, one hour after the first injection, 0.5 mg/kg pramipexole): 194.65%±27
withdrawal latencies to a thermal stimulus, weekly average (wild type (WT) animals; week 1, pramipexole 0.5 mg/kg/day chronic injections): 204.81%±6.3 % of control
withdrawal latencies to a thermal stimulus, weekly average (wild type (WT) animals; week 2, pramipexole 0.5 mg/kg/day chronic injections): 158+/−12 % of control
withdrawal latencies to a thermal stimulus, weekly average (wild type (WT) animals; week 3, pramipexole 0.5 mg/kg/day chronic injections): 135+/−6.5 % of control
withdrawal latencies to a thermal stimulus, weekly average (wild type (WT) animals; week 4, pramipexole 0.5 mg/kg/day chronic injections): 85+/−11 % of control

Oc1cc2c(cc1O)C(c1ccccc1)CNCC2 (stereo not drawn) [SKF 38393]
spinal reflex amplitudes (SRAs) [1, 2]: significantly increased them; also recorded: increases SRAs

CN1CCc2cc(Cl)c(O)cc2[C@H]2c3ccccc3CC[C@@H]21 [SCH 39166, ecopipam]
thermal withdrawal latencies (wild type (WT) animals; acute treatment): 131+/−6.5 % of control
acute modulation of thermal withdrawal responses (FIG. 2) (wild type (WT) animals; acute treatment, result in words): increase withdrawal latencies
withdrawal latencies after single injection of D1R antagonist (wild type (WT) animals; animals treated for 4 weeks with pramipexole, 1 hour post-injection): 150.+/−15%
long-term effect on withdrawal latencies (wild type (WT) animals; daily for 4 weeks, current data sets, result in words): does not have a significant effect
withdrawal latencies after single injection of D1R antagonist (wild type (WT) animals; non-treated group, week 1, one hour after the injection): 151 +/−13%
spinal reflex amplitudes (SRAs) ([1]; additional bath-application after prolonged pramipexole exposure): decreased

CCCN1C[C@H](CSC)C[C@@H]2c3cccc4[nH]cc(c34)C[C@H]21 [pergolide]
spinal reflex amplitudes (SRAs) [1, 2]: significantly decreased SRAs; also recorded: significantly decreases SRAs over control
